Experimental data published in patent US10669235B2, “Indole derivatives and their use as protein kinase inhibitors” (RESPIVERT LIMITED, priority 2016, dated 2020).
Counter-ions that a name gives are not always drawn. Like-named read-outs stand apart in the source and are kept apart here.

Assays:
[1] = target: T1, PDGFRβ (Homo sapiens (Human), UniProt P09619); experiment: PDGFRβ enzyme inhibition (ADP-Glo assay); format: biochemical
[2] = target: T1, PDGFRβ; experiment: PDGF-BB induced phosphorylation of PDGFRβ in fibroblasts (MRC5, HTRF); format: cell-based; conditions: MRC5 cells, PDGFBB stimulation; read-out: PDGFBB-induced PDGFRβ phosphorylation in MRC5 cells (IC50)
[3] = tested on: MRC5 cells; experiment: Cell viability assay in MRC5 cells (MTT)
[4] = PAMPA permeability assay; format: in vitro ADME; conditions: pH 7, PAMPA; for Papp at 5 hr, 10 μM: pH 7, 10 μM
[5] = Pharmacokinetic measurements in rats (i.v., i.t., oral); format: in vivo; conditions: rat; for concentration at 0.1 h: read-out: lung concentration (nM) at time 0.1 h; for concentration at 1.5 h: read-out: lung concentration (nM) at time 1.5 h; for concentration at 6 h: read-out: lung concentration (nM) at time 6 h; for concentration at 24 h: read-out: lung concentration (nM) at time 24 h
[6] = i.t. dose 0.1 (nintedanib 0.42)
[7] = i.t. dose 0.1 (nintedanib 0.42), 6 h
[8] = i.t. dose 0.1 (nintedanib 0.42), 24 h
[9] = i.v. dose 0.1 (nintedanib 0.42)
[10] = i.v. dose 0.1 (nintedanib 0.42), 6 h
[11] = i.v. dose 0.1 (nintedanib 0.42), 24 h
[12] = mean, n = 2 (nintedanib n = 34)

T1 sequence (P09619 33-1106): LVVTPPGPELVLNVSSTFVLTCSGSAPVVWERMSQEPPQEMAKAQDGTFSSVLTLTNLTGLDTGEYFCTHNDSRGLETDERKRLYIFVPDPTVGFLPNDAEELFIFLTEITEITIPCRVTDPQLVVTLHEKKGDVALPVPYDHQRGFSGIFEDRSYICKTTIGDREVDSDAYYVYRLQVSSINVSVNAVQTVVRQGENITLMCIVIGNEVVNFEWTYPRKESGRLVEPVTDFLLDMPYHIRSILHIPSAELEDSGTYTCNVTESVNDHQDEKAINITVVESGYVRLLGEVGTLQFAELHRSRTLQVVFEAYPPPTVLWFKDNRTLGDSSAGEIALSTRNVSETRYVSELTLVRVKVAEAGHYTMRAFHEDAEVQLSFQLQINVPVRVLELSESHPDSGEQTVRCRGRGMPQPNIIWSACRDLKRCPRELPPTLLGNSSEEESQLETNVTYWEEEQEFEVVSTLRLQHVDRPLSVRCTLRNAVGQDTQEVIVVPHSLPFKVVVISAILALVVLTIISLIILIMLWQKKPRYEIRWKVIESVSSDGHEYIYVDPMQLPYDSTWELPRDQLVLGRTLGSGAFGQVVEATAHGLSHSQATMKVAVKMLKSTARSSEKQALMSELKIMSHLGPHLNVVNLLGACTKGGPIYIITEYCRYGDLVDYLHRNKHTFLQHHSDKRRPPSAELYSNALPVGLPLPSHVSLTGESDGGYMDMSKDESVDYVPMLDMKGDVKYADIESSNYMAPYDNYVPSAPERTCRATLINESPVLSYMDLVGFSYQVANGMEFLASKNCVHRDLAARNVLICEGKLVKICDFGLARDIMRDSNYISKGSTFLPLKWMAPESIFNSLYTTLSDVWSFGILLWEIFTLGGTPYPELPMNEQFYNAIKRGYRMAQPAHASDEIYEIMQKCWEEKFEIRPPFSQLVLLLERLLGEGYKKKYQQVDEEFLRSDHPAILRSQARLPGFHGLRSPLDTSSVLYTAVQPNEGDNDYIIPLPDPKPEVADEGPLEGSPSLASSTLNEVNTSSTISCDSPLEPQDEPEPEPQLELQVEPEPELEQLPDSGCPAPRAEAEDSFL

Structure (SMILES)	Ki [1, 12] [nM]	IC50 [2] [nM]	Cell viability at 100 nM (%) [3] [%]	Cell viability at 300 nM (%) [3] [%]	Cell viability at 1000 nM (%) [3] [%]	recovery at 5 hr, 10 μM [4] [%]	Papp at 5 hr, 10 μM [4] [×10⁻⁶ cm/s]	Lung conc i.t./i.v. Ratio at time 0.1 h [5]	Lung conc i.t./i.v. Ratio at time 1.5 h [5]	Lung conc i.t./i.v. Ratio at time 6 h ([5]; 6 h)	Lung conc i.t./i.v. Ratio at time 24 h ([5]; 24 h)	BAL % administered dose at time 0.1 h [5, 6] [%]	lung/plasma conc ratio at time 0.1 h [5, 6]	concentration at 0.1 h [5, 6] [nM]	BAL % administered dose at time 1.5 h [5, 6] [%]	lung/plasma conc ratio at time 1.5 h [5, 6]	concentration at 1.5 h [5, 6] [nM]	BAL % administered dose at time 6 h [5, 7] [%]	lung/plasma conc ratio at time 6 h [5, 7]	concentration at 6 h [5, 7] [nM]	other results
COC(=O)c1cc2c(cc1C)/C(=C(/Nc1ccc(C(=O)NCCN(C)C)cc1)c1ccccc1)C(=O)N2 [Example 2, (Z)-Methyl 3-(((4-((2-(dimethylamino)ethyl)carbamoyl)phenyl)amino)(phenyl)methylene)-5-methyl-2-oxoindoline-6-carboxylate, formate]		36.7	94	91	68.5																Ki [1]: 11.1 nM
COC(=O)c1cc2c(cc1C)/C(=C(/Nc1ccc(C(=O)NCCN3CCCN(C)CC3)cc1)c1ccccc1)C(=O)N2 [Example 5, (Z)-Methyl 5-methyl-3-(((4-((2-(4-methyl-1,4-diazepan-1-yl)ethyl)carbamoyl)phenyl)amino) (phenyl)methylene)-2-oxoindoline-6-carboxylate, formate]		15	91.5	81	84.8	58.7	0.00254	7	12	2	7	13.6	371	5506	0.9	>2285	4022	0.2	>606	1067	BAL % administered dose at time 24 h [5, 8]: 0.2%; lung/plasma conc ratio at time 24 h [5, 8]: >951; concentration at 24 h [5, 8]: 1674 nM; BAL % administered dose at time 0.1 h [5, 9]: BQL; lung/plasma ratio at time 0.1 h [5, 9]: 127; concentration at 0.1 h [5, 9]: 765 nM; BAL % administered dose at time 1.5 h [5, 9]: BQL; lung/plasma ratio at time 1.5 h [5, 9]: >188; concentration at 1.5 h [5, 9]: 330 nM; BAL % administered dose at time 6 h [5, 10]: BQL; lung/plasma ratio at time 6 h [5, 10]: >284; concentration at 6 h [5, 10]: 499 nM; BAL % administered dose at time 24 h [5, 11]: BQL; lung/plasma ratio at time 24 h [5, 11]: >140; concentration at 24 h [5, 11]: 247 nM
COC(=O)c1cc2c(cc1C)/C(=C(/Nc1ccc(C(=O)NCCN3CCC(N(C)C)CC3)cc1)c1ccccc1)C(=O)N2 [Example 6, (Z)-Methyl 3-(((4-((2-(4-(dimethylamino)piperidin-1-yl)ethyl)carbamoyl)phenyl)amino) (phenyl)methylene)-5-methyl-2-oxoindoline-6-carboxylate, formate]		13.2	102.3	98.9	91.2	56.5	0.012	9.8	8.0	8.3	7.7	14	472	9826	0.9	>4452	7568	1.1	>4597	7815	BAL % administered dose at time 24 h [5, 8]: 0.9%; lung/plasma conc ratio at time 24 h [5, 8]: >3787; concentration at 24 h [5, 8]: 6438 nM; BAL % administered dose at time 0.1 h [5, 9]: BQL; lung/plasma ratio at time 0.1 h [5, 9]: 77; concentration at 0.1 h [5, 9]: 1002 nM; BAL % administered dose at time 1.5 h [5, 9]: BQL; lung/plasma ratio at time 1.5 h [5, 9]: >558; concentration at 1.5 h [5, 9]: 949 nM; BAL % administered dose at time 6 h [5, 10]: BQL; lung/plasma ratio at time 6 h [5, 10]: >552; concentration at 6 h [5, 10]: 939 nM; BAL % administered dose at time 24 h [5, 11]: BQL; lung/plasma ratio at time 24 h [5, 11]: >492; concentration at 24 h [5, 11]: 837 nM
COC(=O)c1cc2c(cc1C)/C(=C(/Nc1ccc(C(=O)NCC(=O)N3CCN(CCO)CC3)cc1)c1ccccc1)C(=O)N2 [Example 7, (Z)-Methyl 3-(((4-((2-(4-(2-hydroxyethyl)piperazin-1-yl)-2-oxoethyl)carbamoyl)phenyl)amino) (phenyl)methylene)-5-methyl-2-oxoindoline-6-carboxylate, formate]		6.04	102.9	97.2	67.5	56.3	0.00653	15.5	20.1	>42	>10	3.5	39	1532	0.6	>265	886	0.1	>35	116	MRT ([5]; male, CD, plasma, iv): 42 min; clearance ([5]; male, CD, plasma, iv): 75 mL/min/kg; half-life ([5]; male, CD, plasma, iv): 36 min; Vd ([5]; male, CD, plasma, iv, read-out: Vss): 3.4 L/kg; i.t. BAV (%) [5, 6]: 35%; BAL % administered dose at time 24 h [5, 8]: BQL; lung/plasma conc ratio at time 24 h [5, 8]: >8; concentration at 24 h [5, 8]: 27 nM; BAL % administered dose at time 0.1 h [5, 9]: 0.06%; lung/plasma ratio at time 0.1 h [5, 9]: 2; concentration at 0.1 h [5, 9]: 99 nM; BAL % administered dose at time 1.5 h [5, 9]: BQL; lung/plasma ratio at time 1.5 h [5, 9]: 12; concentration at 1.5 h [5, 9]: 44 nM; BAL % administered dose at time 6 h [5, 10]: BQL; lung concentration (nM) at time 6 h [5, 10]: BQL; BAL % administered dose at time 24 h [5, 11]: BQL; lung concentration (nM) at time 24 h [5, 11]: BQL; Oral BAV (%) ([5]; oral dose 3 mg/kg): <7%
COC(=O)c1cc2c(cc1C)/C(=C(/Nc1ccc(C(=O)NCCN3CCC(F)CC3)cc1)c1ccccc1)C(=O)N2 [Example 28, (Z)-Methyl 3-(((4-((2-(4-fluoropiperidin-1-yl)ethyl)carbamoyl)phenyl)amino)(phenyl)methylene)-5-methyl-2-oxoindoline-6-carboxylate, formate]		51.3	149.4	97.6	83.6																Ki [1]: 20 nM

The next lines start with results.

Ki [1, 12] [nM]	Structure (SMILES)	IC50 [2] [nM]	Cell viability at 100 nM (%) [3] [%]	Cell viability at 300 nM (%) [3] [%]	Cell viability at 1000 nM (%) [3] [%]	recovery at 5 hr, 10 μM [4] [%]	Papp at 5 hr, 10 μM [4] [×10⁻⁶ cm/s]	Lung conc i.t./i.v. Ratio at time 0.1 h [5]	Lung conc i.t./i.v. Ratio at time 1.5 h [5]	Lung conc i.t./i.v. Ratio at time 6 h ([5]; 6 h)	Lung conc i.t./i.v. Ratio at time 24 h ([5]; 24 h)	BAL % administered dose at time 0.1 h [5, 6] [%]	lung/plasma conc ratio at time 0.1 h [5, 6]	concentration at 0.1 h [5, 6] [nM]	BAL % administered dose at time 1.5 h [5, 6] [%]	lung/plasma conc ratio at time 1.5 h [5, 6]	concentration at 1.5 h [5, 6] [nM]	BAL % administered dose at time 6 h [5, 7] [%]	lung/plasma conc ratio at time 6 h [5, 7]	concentration at 6 h [5, 7] [nM]	other results
13	COC(=O)c1cc2c(cc1C)/C(=C(/Nc1cccc(C(=O)N(C)CCN(C)C)c1)c1ccccc1)C(=O)N2 [Example 16, (Z)-Methyl 3-(((3-((2-(dimethylamino)ethyl)(methyl)carbamoyl)phenyl)amino)(phenyl)methylene)-5-methyl-2-oxoindoline-6-carboxylate]		103.2	104.3	70.6																
84.6	COC(=O)c1cc2c(cc1C)/C(=C(/Nc1ccc(C(=O)NCCN3CCC(F)(F)CC3)cc1)c1ccccc1)C(=O)N2 [Example 23, (Z)-Methyl 3-(((4-((2-(4,4-difluoropiperidin-1-yl)ethyl)carbamoyl)phenyl)amino)(phenyl)methylene)-5-methyl-2-oxoindoline-6-carboxylate]	22.6	90.7	100.5	62.1																
12.7	COC(=O)c1cc2c(cc1C)/C(=C(/Nc1ccc(C(=O)NCCN3CCN(C(C)=O)CC3)cc1)c1ccccc1)C(=O)N2 [Example 24, (Z)-Methyl 3-(((4-((2-(4-acetylpiperazin-1-yl)ethyl)carbamoyl)phenyl)amino)(phenyl)methylene)-5-methyl-2-oxoindoline-6-carboxylate]	12.3	125.2	74.4	45.9																
10.2	COC(=O)c1cc2c(cc1C)/C(=C(/Nc1ccc(C(=O)N(C)C3CCN(CCO)CC3)cc1)c1ccccc1)C(=O)N2 [Example 41, (Z)-Methyl 3-(((4-((1-(2-hydroxyethyl)piperidin-4-yl)(methyl)carbamoyl)phenyl)amino)(phenyl)methylene)-5-methyl-2-oxoindoline-6-carboxylate, 0.2 formate]	7.4	68.5	56.8	6.2																
14.4	COC(=O)c1cc2c(cc1C)/C(=C(/Nc1ccc(C(=O)NCCN3CCC(CO)CC3)cc1)c1ccccc1)C(=O)N2 [Example 42, (Z)-Methyl 3-(((4-((2-(4-(hydroxymethyl)piperidin-1-yl)ethyl)carbamoyl)phenyl)amino)(phenyl)methylene)-5-methyl-2-oxoindoline-6-carboxylate, 0.2 formate]	14.9	82.5	83.4	60.7																
